The values that follow come from ChEMBL document CHEMBL5223082, “Alkyl-Aryl-Vancomycins: Multimodal Glycopeptides with Weak Dependence on the Bacterial Metabolic State” (J Med Chem, 2021).

In brackets after ≈: the same amount, converted by molar mass. Activity calls are given as the source filed them. The calls are words filed in the database; no cut-off is given here. Bounds are passed on as bounds.

Assay [1] concerns Cell membrane. As to the kind of experiment: Induction of cytoplasmic membrane depolarization in Vancomycin-resistant Enterococci assessed as increase in fluorescence intensity at 10 uM measured for 35 to 40 mins by DiSC3(5) dye based fluorescence analysis. The class given is subcellular. The following applies: Enterococcus, time 35-40 min.
The test system of assay [2] is Staphylococcus aureus. As to the kind of experiment: Antibacterial activity against Methicillin-resistant Staphylococcus aureus ATCC 33591 assessed as inhibition of bacterial growth incubated for 18 to 24 hrs by CLSI microbroth dilution method. The format is functional. Conditions: time 18-24 hrs.
The test system of assay [3] is Enterococcus. As to the kind of experiment: Antibacterial activity against Vancomycin-resistant Enterococci ATCC 51559 assessed as inhibition of bacterial growth incubated for 18 to 24 hrs by CLSI microbroth dilution method. The class given is functional. Conditions: time 18-24 hrs.
Assay [4] deals with T1, Septum site-determining protein MinD (Bacillus subtilis (strain 168)) (UniProt Q01464).
T1 sequence (whole entry): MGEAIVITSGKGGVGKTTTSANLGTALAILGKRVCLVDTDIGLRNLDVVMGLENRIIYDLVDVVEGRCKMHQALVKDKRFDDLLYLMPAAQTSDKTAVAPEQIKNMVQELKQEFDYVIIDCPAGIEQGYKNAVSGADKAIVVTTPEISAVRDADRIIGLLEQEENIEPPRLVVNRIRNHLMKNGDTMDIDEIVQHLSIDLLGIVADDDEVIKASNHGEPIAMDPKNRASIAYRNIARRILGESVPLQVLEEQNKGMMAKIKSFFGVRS
As to the kind of experiment: Delocalization of GFP tagged-MinD in Bacillus subtilis 168 at PEC incubated for 15 mins by fluorescence microscopy.

Assay [5] concerns Cell membrane. As to the kind of experiment: Induction of cytoplasmic membrane depolarization in Bacillus subtilis assessed as increase in fluorescence intensity at 10 uM measured for 35 to 40 mins by DiSC3(5) dye based fluorescence analysis. The class given is subcellular. The following applies: time 35-40 min.
The subject of assay [6] is Staphylococcus aureus. As to the kind of experiment: Antibacterial activity against Methicillin-resistant Staphylococcus aureus ATCC 33591 assessed as time duration of post-antibiotic effect for suppression of bacterial growth at 10XMIC incubated for 1 hr in broth solution followed by washing for drug removal and subsequent plating on nutrient agar plate. The class given is functional.

Assay [7] relates to Staphylococcus aureus. As to the kind of experiment: Ratio of MIC for antibacterial activity against Methicillin-resistant Staphylococcus aureus ATCC 33591 measured after 27 passages to MIC for antibacterial activity against Methicillin-resistant Staphylococcus aureus ATCC 33591 measured after 18 to 24 hrs incubation. The class given is functional.
In assay [8] the test system is Enterococcus. As to the kind of experiment: Antibacterial activity against Vancomycin-resistant Enterococci NR30903 assessed as inhibition of bacterial growth incubated for 18 to 24 hrs by CLSI microbroth dilution method. The following applies: time 18-24 hrs. The class given is functional.
In assay [9] the test system is Enterococcus. As to the kind of experiment: Antibacterial activity against Vancomycin-resistant Enterococci ATCC 51575 assessed as inhibition of bacterial growth incubated for 18 to 24 hrs by CLSI microbroth dilution method. The class given is functional. Conditions: time 18-24 hrs.
The test system of assay [10] is Staphylococcus aureus. As to the kind of experiment: Antibacterial activity against Methicillin-resistant Staphylococcus aureus ATCC 33591 persister cells assessed as reduction in bacterial colonies at 40 uM incubated for 24 hrs in broth solution followed by incubation on agar plate for 48 hrs by spot plating method. The format is functional, organism-based. The following applies: time 72.0 hrs.

The test system of assay [11] is Staphylococcus aureus. As to the kind of experiment: Ratio of MIC for antibacterial activity against Methicillin-resistant Staphylococcus aureus ATCC 33591 in presence of N,N'-diacetyl-L-Lys-D-Ala-D-Ala to MIC for antibacterial activity against Methicillin-resistant Staphylococcus aureus ATCC 33591. The format is functional.
Assay [12] has as its system Staphylococcus aureus. As to the kind of experiment: Antibacterial activity against Methicillin-resistant Staphylococcus aureus ATCC 33591 assessed as inhibition of bacterial growth preincubated compound with teichoic-acid for 1 hr followed by incubation with bacterial culture for 18 to 24 hrs by CLSI microbroth dilution method. The class given is functional. Conditions: time 19-25 hrs.

The subject of assay [13] is Staphylococcus aureus. As to the kind of experiment: Bactericidal activity against methicillin-resistant Staphylococcus aureus ATCC 33591 assessed as reduction in bacterial colonies at MIC to 8XMIC incubated for 6 hrs in broth solution followed by culturing for 24 hrs on agar plate by spot plating method. The class given is functional, organism-based. The following applies: time 30.0 hrs.

Assay [14] relates to Cell membrane. As to the kind of experiment: Induction of cytoplasmic membrane depolarization in Methicillin-resistant Staphylococcus aureus ATCC 33591 assessed as increase in fluorescence intensity at 10 uM measured for 35 to 40 mins by DiSC3(5) dye based fluorescence analysis. The class given is subcellular. Conditions: time 35-40 min.
Assay [15] relates to Bacillus subtilis. As to the kind of experiment: Inhibition of cell wall biosynthesis in Bacillus subtilis 168 assessed as bubble-like formation on bacterial cell surface at PEC incubated for 15 mins by light microscopic analysis. The class given is functional, organism-based.
The test system of assay [16] is Bacillus subtilis. As to the kind of experiment: Antibacterial activity against Bacillus subtilis 168 assessed as concentration that requires for bacterial growth retardation measured for every 30 mins. The class given is functional.
In assay [17] the test system is Staphylococcus aureus. As to the kind of experiment: Antibiofilm activity against Methicillin-resistant Staphylococcus aureus ATCC 33591 assessed as bacterial biofilm thickness at 20 uM incubated for 24 hrs by confocal laser scanning microscopy (reference value: 8 micrometer). The class given is functional.
Assay [18] has as its system Staphylococcus aureus. As to the kind of experiment: Antibiofilm activity against Methicillin-resistant Staphylococcus aureus ATCC 33591 assessed as log reduction in bacterial viability within the biofilms at 20 uM incubated for 24 hrs in broth solution followed by culturing on agar plate for 24 hrs by spot plating method. The following applies: time 48 hrs. The format is functional.

The subject of assay [19] is Staphylococcus aureus. As to the kind of experiment: Antibacterial activity against Vancomycin-resistant Staphylococcus aureus 12 assessed as inhibition of bacterial growth incubated for 18 to 24 hrs by CLSI microbroth dilution method. The format is functional. The following applies: time 18-24 hrs.
Assay [20] relates to Staphylococcus aureus. As to the kind of experiment: Antibacterial activity against Vancomycin-resistant Staphylococcus aureus 1 assessed as inhibition of bacterial growth incubated for 18 to 24 hrs by CLSI microbroth dilution method. The class given is functional. Conditions: time 18-24 hrs.
Assay [21] deals with Staphylococcus aureus. As to the kind of experiment: Antibacterial activity against Methicillin-resistant Staphylococcus aureus ATCC 33591 assessed as inhibition of bacterial growth preincubated compound with N,N'-diacetyl-L-Lys-D-Ala-D-Ala for 10 mins followed by incubation with bacterial culture for 18 to 24 hrs by CLSI microbroth dilution method. The class given is functional. Conditions: time 1090-1450 min.

Assay [22] deals with Enterococcus. As to the kind of experiment: Antibacterial activity against Vancomycin-resistant Enterococci NR30909 assessed as inhibition of bacterial growth incubated for 18 to 24 hrs by CLSI microbroth dilution method. The format is functional. Conditions: time 18-24 hrs.
Assay [23] relates to Staphylococcus aureus. As to the kind of experiment: Antibacterial activity against Vancomycin-resistant Staphylococcus aureus 4 assessed as inhibition of bacterial growth incubated for 18 to 24 hrs by CLSI microbroth dilution method. The format is functional. The following applies: time 18-24 hrs.
The test system of assay [24] is Staphylococcus aureus. As to the kind of experiment: Antibacterial activity against Methicillin-resistant Staphylococcus aureus ATCC 33591 assessed as log reduction in bacterial colonies at 10XMIC incubated for 1 hr in broth solution followed by plating on nutrient agar plate. The format is functional.

`CN[C@H](CC(C)C)C(=O)N[C@H]1C(=O)N[C@@H](CC(N)=O)C(=O)N[C@H]2C(=O)N[C@H]3C(=O)N[C@H](C(=O)N[C@H](C(=O)O)c4cc(O)cc(O)c4-c4cc3ccc4O)[C@H](O)c3ccc(c(Cl)c3)Oc3cc2cc(c3O[C@@H]2O[C@H](CO)[C@@H](O)[C@H](O)[C@H]2O[C@H]2C[C@](C)(N)[C@H](O)[C@H](C)O2)Oc2ccc(cc2Cl)[C@H]1O` [VANCOMYCIN]: the outcome in assay [1], in [4], in assay [5], in assay [10] and in assay [14] was inactive. The MIC in assay [2] came out at 0.6 µM (≈ 0.87 µg/mL); in assay [3] it was 1380 µM (≈ 2010 µg/mL); in [8] it was 692 µM (≈ 1000 µg/mL); in assay [9], 346 µM (≈ 501 µg/mL); in assay [12] it was 0.6 µM (≈ 0.87 µg/mL); in [19], 346 µM (≈ 501 µg/mL). Also, the minimal inhibitory concentration (MIC) in [20] was 346 µM (≈ 501 µg/mL); in assay [21] it was more than 30 µM; in assay [22], 346 µM (≈ 501 µg/mL); in [23], 346 µM (≈ 501 µg/mL). Further, the Time in assay [6] turned out to be 6 h. In addition, the Ratio is 2 in assay [7] and more than 40 in assay [11]. Moreover, in [13], the outcome was Active. The inhibition result in assay [15] is “Active”. The EC in assay [16] stood at 0.4 µM. Besides, the values for the Activity in [17], in assay [18] and in assay [24] were 7 um, 0.9 log10CFU/ml and 0.5 log10CFU/ml, respectively.
